Reference: US20060216258A1, “Water-in-silicone emulsion compositions” (priority 2005, published 2006)

Experiment: human repetitive patch test (cumulative irritation)
Conditions: undiluted product under semi-occlusive patches daily over twelve-day test period, about 100 μl per patch; SLS value is average of two studies
Procedure: The technique involves application of undiluted test products under semi-occlusive patches daily over a twelve-day test period. Approximately 100 μl of test product is applied to each non-woven cotton pad and secured to the skin with porous, hypoallergenic tape. An undosed patch served as a negative control, while a 1.0% sodium lauryl sulfate (SLS) patch served as the positive control. Each day, patches were removed and test sites professionally graded for irritation prior to re-patching.

Question: Which “Cumulative Irritation Score” value does the source give for `CCCCCCCCCCCCOS(=O)(=O)[O-].[Na+]` [SLS, sodium lauryl sulfate] here?
Answer: 514
